Values quoted from earlier work in article PMC5589927, “Visualization of ligand-induced dopamine D2S and D2L receptor internalization by TIRF microscopy” (Scientific Reports, 2017).

Tests used:
D2S receptors = settings: stably transfected CHO cells, ref 46 (Itokawa et al.)
D2L receptors = settings: stably transfected CHO cells, ref 46 (Itokawa et al.)

SMILES: NCCc1ccc(O)c(O)c1 [dopamine]
- surface expressed D2S receptors unavailable for [3H]sulpiride (internalization) (D2S receptors; after incubation with agonist): about 44%
- half-life of decrease D2S (D2S receptors): 19 min
- internalization of D2L (D2L receptors; after incubation with agonist): 22%
- half-life of decrease D2L (D2L receptors): 33 min
